The text below walks through data of patent US12234221B2, “Pyridine carboxamide compounds for inhibiting NAV1.8” (Lieber Institute, Inc., priority 2018, dated 2025).

Some results are limits rather than exact numbers.

This assay addresses T1, human Nav1.8 (hNav1.8) ion channel (Homo sapiens, UniProt Q9Y5Y9).
T1 construct: expressed in transfected cells; host or cells: HEK293
Briefly: Nav1.8 channel inhibition, estimated IC50 (one or more of: fluorescence inhibition assay, PatchXpress, IonFlux HT automated patch clamp). The assay is classed as cell-based. The conditions noted are these: HEK293 cells stably expressing hNav1.8; method used per compound not stated; read-out: Activity range (estimated IC50). On the procedure: The ability of pyridine carboxamide derivatives exemplified above to inhibit the Nav1.8 channel was determined using one or more of the methods described below.
HEK Nav1.8 β1/β2 Stably Expressing Cell Line
A HEK293 cell line stably expressing the human Nav1.8 (hNav1.8) ion channel with β1/β2 subunits was constructed. The cell line is suitable for IC50 determination in fluorescence and electrophysiological based assays. It is also suitable to form mechanism of action pharmacology studies in electrophysiological assays. HEK293 Nav 1.8 cells are grown as adherent monolayers in DMEM/high glucose media, 10% fetal bovine serum, Na pyruvate (2 mM), Hepes (10 mM) with selection agents G418 (400 mg/L) and puromycin (0.5 mg/L) at 37 degrees C., 10% CO2.
Nav 1.8 Fluorescence Inhibition Assay
Compounds were made up to or supplied as a 10-mM stock solution using DMSO as the vehicle. Concentration-response curves were generated using a Matrix multichannel pipettor. Compound source plates were made by diluting 10 mM compound stocks to create 500 μM (100×) solutions in DMSO in 96-well v-bottom plates. Compounds were then serially diluted in 100% DMSO to generate a 5 point, 4-fold dilution scheme dose response curve. 2 μL of the 100× dose response curves was then added to preincubation and stimulation assay plates. 100 μL of pre-incubation buffer and 200 μL of stimulation buffer were then added to the plates resulting in a final assay test concentration range of 5 μM to 0.02 μM with a final DMSO concentration of 1%.
On the day of assay, plates were washed to remove cell culture media using 2K EBSS buffer (135 mM NaCl, 2 mM KCl, 5 mM Glucose, 2 mM CaCl2), 1 mM MgCl2, 10 mM HEPES, pH 7.4). The Na-sensitive fluorescent dye, Asante Natrium Green-2 (ANG-2) is incubated for 60 min to allow equilibration and then washed with 2K EBSS. Plates are the transferred to a fluorescence plate reader (FLIPR™, Molecular Devices) for fluorescence measurement using an excitation wavelength of 490 nm and an emission wavelength of 565 nm. Compounds are pre-incubated at for 5 min at final test concentration in the presence of ouabain (30 μM) to inhibit Na+ efflux through Na+/K+ exchanger. Following the pre-incubation phase, hNav1.8 channels are stimulated with 10 μM of the pyrethroid deltamethrin to prevent channel inactivation. The assay was run for 15 min with vehicle and 30 μM tetracaine serving as negative and positive controls, respectively. The peak change in fluorescence relative to negative and positive control wells was calculated and fit with a logistic equation to determine IC50.
PatchXpress Nav 1.8 Inhibition Assay
HEK-Nav1.8 β1/β2 cells were recorded in whole cell patch-clamp using the PatchXpress automated patch clamp platforms (Molecular Devices). Cells suspensions were obtained by trypsinization of adherent monolayers, followed by gentle rocking for minimally 30 min. Compounds were prepared from 10 mM DMSO stocks.
Nav1.8 channel variants were evaluated using Protocol 1 (FIG. 2) in which cells were initially voltage clamped at a holding potential of −100 mV to maintain Nav1.8 in a closed resting state. After current amplitude becomes stable, the mid-point voltage of steady state inactivation was determined for each cell using a series of 5 sec conditioning steps to increasingly depolarized voltages (−100 to 0 mV) The holding potential was then reset to a voltage that produces ˜50% inactivation (Vhalf−set automatically via PatchXpress scripts) so that closed and inactivated channel inhibition can be assessed. Protocol 1 was run at a frequency of 0.1 Hz until current amplitude is steady (automatically determined by PatchXpress scripts). The effect of test reagent on Nav current amplitude was monitored using custom PatchXpress stability scripts which determines the timing of compound addition and washout. Data were processed and analyzed using DataXpress 2.0 (Molecular Devices). […]

T1 sequence (Q9Y5Y9 whole entry): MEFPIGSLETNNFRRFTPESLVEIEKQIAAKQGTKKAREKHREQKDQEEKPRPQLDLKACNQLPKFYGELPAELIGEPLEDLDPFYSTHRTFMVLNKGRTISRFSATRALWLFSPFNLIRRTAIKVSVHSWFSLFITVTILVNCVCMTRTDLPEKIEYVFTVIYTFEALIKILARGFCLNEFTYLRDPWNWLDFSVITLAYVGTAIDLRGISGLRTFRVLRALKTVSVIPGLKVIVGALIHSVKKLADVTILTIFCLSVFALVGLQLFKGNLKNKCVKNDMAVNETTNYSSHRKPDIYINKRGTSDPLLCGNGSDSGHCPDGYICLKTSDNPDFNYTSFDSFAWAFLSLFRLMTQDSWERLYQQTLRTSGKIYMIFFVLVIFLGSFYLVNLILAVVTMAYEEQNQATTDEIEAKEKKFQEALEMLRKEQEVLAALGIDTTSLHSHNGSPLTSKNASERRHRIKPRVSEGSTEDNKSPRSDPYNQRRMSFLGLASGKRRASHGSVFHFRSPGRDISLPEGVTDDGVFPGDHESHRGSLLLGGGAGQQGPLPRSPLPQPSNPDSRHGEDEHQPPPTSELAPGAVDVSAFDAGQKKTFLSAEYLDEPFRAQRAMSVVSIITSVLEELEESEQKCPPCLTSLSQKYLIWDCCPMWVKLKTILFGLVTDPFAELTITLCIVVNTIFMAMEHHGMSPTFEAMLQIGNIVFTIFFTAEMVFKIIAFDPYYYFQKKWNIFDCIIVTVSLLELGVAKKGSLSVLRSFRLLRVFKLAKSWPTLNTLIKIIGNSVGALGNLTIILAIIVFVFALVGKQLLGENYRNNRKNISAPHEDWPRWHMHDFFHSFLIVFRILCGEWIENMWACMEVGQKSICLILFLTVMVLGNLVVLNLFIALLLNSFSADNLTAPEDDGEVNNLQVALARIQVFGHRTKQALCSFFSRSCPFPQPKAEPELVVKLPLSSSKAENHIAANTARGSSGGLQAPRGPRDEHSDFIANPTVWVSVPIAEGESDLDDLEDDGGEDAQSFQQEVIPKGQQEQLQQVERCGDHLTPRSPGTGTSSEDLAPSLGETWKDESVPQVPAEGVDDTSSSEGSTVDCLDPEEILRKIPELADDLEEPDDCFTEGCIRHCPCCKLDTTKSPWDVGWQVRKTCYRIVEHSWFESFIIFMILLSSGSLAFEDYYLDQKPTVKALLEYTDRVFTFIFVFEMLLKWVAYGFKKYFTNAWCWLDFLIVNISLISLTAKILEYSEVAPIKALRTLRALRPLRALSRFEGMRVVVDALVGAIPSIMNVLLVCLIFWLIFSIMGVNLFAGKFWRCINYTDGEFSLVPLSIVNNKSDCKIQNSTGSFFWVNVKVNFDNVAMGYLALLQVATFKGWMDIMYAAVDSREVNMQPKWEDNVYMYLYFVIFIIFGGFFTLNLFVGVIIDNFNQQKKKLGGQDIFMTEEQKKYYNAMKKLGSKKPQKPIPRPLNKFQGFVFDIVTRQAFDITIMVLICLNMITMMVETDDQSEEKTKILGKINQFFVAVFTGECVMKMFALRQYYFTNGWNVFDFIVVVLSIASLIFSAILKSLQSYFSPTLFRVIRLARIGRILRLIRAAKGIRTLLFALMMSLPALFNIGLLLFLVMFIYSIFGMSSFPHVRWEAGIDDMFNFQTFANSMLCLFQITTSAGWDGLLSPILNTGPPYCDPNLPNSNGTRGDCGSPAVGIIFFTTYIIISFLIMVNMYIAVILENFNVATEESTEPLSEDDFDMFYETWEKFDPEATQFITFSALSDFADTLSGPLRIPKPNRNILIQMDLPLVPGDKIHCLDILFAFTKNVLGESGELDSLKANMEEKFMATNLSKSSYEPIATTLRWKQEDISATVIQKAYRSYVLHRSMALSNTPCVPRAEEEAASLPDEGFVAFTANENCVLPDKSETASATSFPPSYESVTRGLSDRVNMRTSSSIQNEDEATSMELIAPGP

What is called IC50 is the point on the concentration scale where inhibition reaches its midpoint. Regarding `CS(=N)(=O)c1cccc(NC(=O)c2cc(C(F)(F)F)cnc2Oc2ccc(OC(F)(F)F)cc2)c1` (single isomer, unassigned) [Example 130, N-[3-(methylsulfonimidoyl)phenyl]-2-[4-(trifluoromethoxy)phenoxy]-5-(trifluoromethyl)pyridine-3-carboxamide], the IC50 was below 500 nM.

For the molecule `CS(=N)(=O)c1cccc(NC(=O)c2cc(C(F)(F)F)cnc2Oc2ccc(OC(F)(F)F)cc2)c1` (single isomer, unassigned) [Example 131, N-[3-(methylsulfonimidoyl)phenyl]-2-[4-(trifluoromethoxy)phenoxy]-5-(trifluoromethyl)pyridine-3-carboxamide], the IC50 is below 500 nM.

In the case of `COc1cc(F)ccc1Oc1ncc(C(F)(F)F)cc1C(=O)Nc1ccc2ncsc2c1` [Example 1, N-(1,3-benzothiazol-6-yl)-2-(4-fluoro-2-methoxy-phenoxy)-5-(trifluoromethyl)pyridine-3-carboxamide], the IC50 was above 1000 nM.

Turning to `COc1cc(F)ccc1Oc1ncc(C(F)(F)F)cc1C(=O)Nc1cccc(N2CCOCC2)c1` [Example 2, 2-(4-fluoro-2-methoxy-phenoxy)-N-(3-morpholinophenyl)-5-(trifluoromethyl)pyridine-3-carboxamide], the IC50 was above 1000 nM.

Take `COc1cc(F)ccc1Oc1ncc(C(F)(F)F)cc1C(=O)Nc1cccc(C#N)c1` [Example 3, N-(3-cyanophenyl)-2-(4-fluoro-2-methoxy-phenoxy)-5-(trifluoromethyl)pyridine-3-carboxamide]: the IC50 is below 500 nM.

As to `COc1cc(F)ccc1Oc1ncc(C(F)(F)F)cc1C(=O)Nc1cccnc1` [Example 4, 2-(4-fluoro-2-methoxy-phenoxy)-N-(3-pyridyl)-5-(trifluoromethyl)pyridine-3-carboxamide], the IC50 was above 1000 nM.

Consider `COc1cc(F)ccc1Oc1ncc(C(F)(F)F)cc1C(=O)Nc1ccc(C#N)cc1` [Example 5, N-(4-cyanophenyl)-2-(4-fluoro-2-methoxy-phenoxy)-5-(trifluoromethyl)pyridine-3-carboxamide], for which the half-inhibitory concentration (IC50) is above 1000 nM.

Take `COc1cc(F)ccc1Oc1ncc(C(F)(F)F)cc1C(=O)Nc1ccncc1` [Example 6, 2-(4-fluoro-2-methoxy-phenoxy)-N-(4-pyridyl)-5-(trifluoromethyl)pyridine-3-carboxamide]: the IC50 was 500 to 1000 nM.

As for `COc1cc(F)ccc1Oc1ncc(C(F)(F)F)cc1C(=O)Nc1ccc(C#N)nc1` [Example 7, N-(6-cyano-3-pyridyl)-2-(4-fluoro-2-methoxy-phenoxy)-5-(trifluoromethyl)pyridine-3-carboxamide], the IC50 was above 1000 nM.

As to `COc1cc(F)ccc1Oc1ncc(C(F)(F)F)cc1C(=O)Nc1cccc([S+](C)[O-])c1` (centres unmarked) [Example 8, 2-(4-fluoro-2-methoxy-phenoxy)-N-(3-methylsulfinylphenyl)-5-(trifluoromethyl)pyridine-3-carboxamide], the IC50 is below 500 nM.

In the case of `COc1cc(F)ccc1Oc1ncc(C(F)(F)F)cc1C(=O)Nc1cccc(-c2cnco2)c1` [Example 9, 2-(4-fluoro-2-methoxy-phenoxy)-N-(3-oxazol-5-ylphenyl)-5-(trifluoromethyl)pyridine-3-carboxamide], the IC50 was above 1000 nM.

With `COc1cc(F)ccc1Oc1ncc(C(F)(F)F)cc1C(=O)Nc1cccc(S(=O)(=O)N(C)C)c1` [Example 10, N-[3-(dimethylsulfamoyl)phenyl]-2-(4-fluoro-2-methoxy-phenoxy)-5-(trifluoromethyl)pyridine-3-carboxamide], the IC50 is below 500 nM.

As to `COc1cc(F)ccc1Oc1ncc(C(F)(F)F)cc1C(=O)Nc1nc2ccccc2s1` [Example 11, N-(1,3-benzothiazol-2-yl)-2-(4-fluoro-2-methoxy-phenoxy)-5-(trifluoromethyl)pyridine-3-carboxamide], the half-maximal inhibitory concentration (IC50) was above 1000 nM.

Consider `COc1cc(F)ccc1Oc1ncc(C(F)(F)F)cc1C(=O)Nc1ccncn1` [Example 12, 2-(4-fluoro-2-methoxy-phenoxy)-N-pyrimidin-4-yl-5-(trifluoromethyl)pyridine-3-carboxamide], for which the IC50 was below 500 nM.

For `COc1cc(F)ccc1Oc1ncc(C(F)(F)F)cc1C(=O)Nc1cccc(S(=O)(=O)C(F)(F)F)c1` [Example 13, 2-(4-fluoro-2-methoxy-phenoxy)-5-(trifluoromethyl)-N-[3-(trifluoromethylsulfonyl)phenyl]pyridine-3-carboxamide], the IC50 was above 1000 nM.

Consider `COc1cc(F)ccc1Oc1ncc(C(F)(F)F)cc1C(=O)Nc1cccc(S(C)(=N)=O)c1` (centres unmarked) [Example 14, 2-(4-fluoro-2-methoxy-phenoxy)-N-[3-(methylsulfonimidoyl)phenyl]-5-(trifluoromethyl)pyridine-3-carboxamide], for which the IC50 is below 500 nM.

Turning to `COc1cc(NC(=O)c2cc(C(F)(F)F)cnc2Oc2ccc(F)cc2OC)ccn1` [Example 15, 2-(4-fluoro-2-methoxy-phenoxy)-N-(2-methoxy-4-pyridyl)-5-(trifluoromethyl)pyridine-3-carboxamide], the half-inhibitory concentration (IC50) was above 1000 nM.

With `CN=S(C)(=O)c1cccc(NC(=O)c2cc(C(F)(F)F)cnc2Oc2ccc(F)cc2OC)c1` (centres unmarked) [Example 16, N-[3-(N,S-dimethylsulfonimidoyl)phenyl]-2-(4-fluoro-2-methoxy-phenoxy)-5-(trifluoromethyl)pyridine-3-carboxamide], the IC50 is below 500 nM.

Turning to `COc1cc(F)ccc1Oc1ncc(C(F)(F)F)cc1C(=O)Nc1ccnc(C)c1` [Example 17, 2-(4-fluoro-2-methoxy-phenoxy)-N-(2-methyl-4-pyridyl)-5-(trifluoromethyl)pyridine-3-carboxamide], the IC50 was above 1000 nM.

`COc1cc(F)ccc1Oc1ncc(C(F)(F)F)cc1C(=O)Nc1ccc(C)nc1` [Example 18, 2-(4-fluoro-2-methoxy-phenoxy)-N-(6-methyl-3-pyridyl)-5-(trifluoromethyl)pyridine-3-carboxamide]: the 50% inhibitory concentration (IC50) was above 1000 nM.

On to `COc1cc(F)ccc1Oc1ncc(C(F)(F)F)cc1C(=O)Nc1ccnnc1` [Example 19, 2-(4-fluoro-2-methoxy-phenoxy)-N-pyridazin-4-yl-5-(trifluoromethyl)pyridine-3-carboxamide], for which the IC50 is 500 to 1000 nM.

As to `COc1cc(F)ccc1Oc1ncc(C(F)(F)F)cc1C(=O)Nc1cccc(N=S(C)(C)=O)c1` [Example 20, N-[3-[[dimethyl(oxo)-λ^6-sulfanylidene]amino]phenyl]-2-(4-fluoro-2-methoxy-phenoxy)-5-(trifluoromethyl)pyridine-3-carboxamide], the IC50 was above 1000 nM.

With `CS(=O)(=O)c1cccc(NC(=O)c2cc(C(F)(F)F)cnc2Oc2ccc(Cl)cc2Cl)c1` [Example 21, 2-(2,4-dichlorophenoxy)-N-(3-methylsulfonylphenyl)-5-(trifluoromethyl)pyridine-3-carboxamide], the IC50 is below 500 nM.

Consider `Cc1ccc(Oc2ncc(C(F)(F)F)cc2C(=O)Nc2cccc(S(C)(=O)=O)c2)c(C)c1` [Example 22, 2-(2,4-dimethylphenoxy)-N-(3-methylsulfonylphenyl)-5-(trifluoromethyl)pyridine-3-carboxamide], for which the IC50 was above 1000 nM.

With `COc1ccc(Oc2ncc(C(F)(F)F)cc2C(=O)Nc2cccc(S(C)(=O)=O)c2)c(Cl)c1` [Example 23, 2-(2-chloro-4-methoxy-phenoxy)-N-(3-methylsulfonylphenyl)-5-(trifluoromethyl)pyridine-3-carboxamide], the IC50 is below 500 nM.

As to `CCCc1ccccc1Oc1ncc(C(F)(F)F)cc1C(=O)Nc1cccc(S(C)(=O)=O)c1` [Example 24, N-(3-methylsulfonylphenyl)-2-(2-propylphenoxy)-5-(trifluoromethyl)pyridine-3-carboxamide], the IC50 is above 1000 nM.
